According to article PMC11249646, “Small-Molecule Disruptors of the Interaction between Calcium- and Integrin-Binding Protein 1 and Integrin αIIbβ3 as Novel Antiplatelet Agents” (ACS Pharmacology & Translational Science, 2024):
≈ marks a conversion by molar mass, not a printed value. Where two headings read alike, the source gives them in different places.

Legend:
washed human platelets = experiment: Human platelet aggregation assay (thrombin-induced); format: cell-based; settings: for inhibition at 10 µM: Homo sapiens, Platelet, single concentration of 10 μM (n = 3), thrombin; for Thrombin Assay 10 µM (%): platelet aggregation inhibition at 10 µM
Text: A classical challenge in target-based drug discovery is moving from biochemical to cellular assay and the essential step of determining if the compounds of interest can perform in a cellular context. After characterization of the compounds in a series of biochemical assay formats, our next step was to assess their activity in a cellular environment. Our previous studies have shown that the interaction of the cytoplasmic domain of integrin αIIbβ3, a key regulator of platelet aggregation, with CIB1, is involved in downstream signaling in platelet activation and aggregation. We sought to determine whether our candidate compounds were inhibiting this interaction by evaluating them for platelet function in a human platelet aggregation assay. We prepared platelet-rich plasma (PRP) and washed the platelets as previously described[44] and then performed a platelet aggregation assay using the washed platelet suspensions (2 × 10^8/platelets/mL) followed by the recording of aggregation traces (see Materials and Methods Section). To induce platelet aggregation, 0.03 U/mL of thrombin, a physiological agonist of platelet activation, was used.
Figure 6 Effect of compounds on human platelet activation. Representative platelet aggregation tracings of washed human platelet suspensions pretreated for 30 min at 37 °C with vehicle (DMSO) or compounds at indicated concentrations followed by activation with thrombin (0.03–0.1 U/mL). Panel (A): NCGC00071855. Panel (B–D): NCGC00351170. Panel (E): CD62P exposure was in the presence of NCGC00351170. Data represents mean ± SEM, n = 4 individual experiments; ns = non significant *P < 0.05, ***P < 0.001, ****P < 0.0001.
Whole blood was drawn by venipuncture from healthy adult volunteers (of both gender and race) with informed consent. Approval was obtained from the institutional review boards of Thomas Jefferson University, according to the Declaration of Helsinki. Blood was collected in acidified citrate dextrose as an anticoagulant. Platelet-rich plasma (PRP) and washed platelets were prepared, as previously described.[44] Platelet aggregation was performed using washed platelet suspensions containing 2 × 10^8 platelets/mL using a Chrono-Log Lumi-Aggregometer (Chrono-Log), as described previously.[11] Aggregation traces were recorded by using Aggrolink software (Chrono-Log). Thrombin-induced P-selectin (CD62P) exposure was performed using Accuri C6 flowcytometer (BD Bioscience) as described previously.[11]
Figure S9: Effect of compounds on human platelet activation. Representative platelet aggregation
tracings of washed human platelet suspensions treated with vehicle (DMSO) or indicated
compounds at 10 μM for 30 minutes at 37 °C followed by activation with thrombin (0.03U/mL).

[1] = In vitro ADME: solubility; format: physicochemical
[2] = molecular target: T1, CIB1 and αIIb interaction (GST-CIB1 : F-αIIb peptide) (Homo sapiens, UniProt Q99828); experiment: FP assay, 384-well format (screen); format: binding; settings: 384-well FP assay
T1 construct: made in house; host or cells: BL-21 plus RIL cells (E. coli)
T1 sequence (Q99828 1-191): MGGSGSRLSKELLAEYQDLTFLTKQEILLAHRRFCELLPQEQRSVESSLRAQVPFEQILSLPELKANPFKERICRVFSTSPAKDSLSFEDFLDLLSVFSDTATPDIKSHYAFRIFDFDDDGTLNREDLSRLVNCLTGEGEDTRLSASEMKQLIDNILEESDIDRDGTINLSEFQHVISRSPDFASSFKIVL

[3] = molecular target: T2, CIB1 and αIIb interaction (CIB1-GST : F-αIIb peptide) (Homo sapiens, UniProt Q99828); experiment: FP assay, 1536-well qHTS format (primary and confirmatory screen); format: binding; settings: for Confirm? (confirmatory screen): YES/NO; for Curve Class (confirmatory screen): qHTS curve class; for Efficacy (%): negative = inhibition
T2 construct: made in house; host or cells: BL-21 plus RIL cells (E. coli)
T2 sequence (Q99828 1-191): T1 sequence (Q99828 1-191)

[4] = molecular target: T3, GST-CIB1 : F-scrambled peptide (Homo sapiens, UniProt Q99828); experiment: FP scrambled-peptide counter screen, 1536-well format; format: binding; settings: counterscreen; for Curve Class (counterscreen): qHTS curve class, negative sign = inhibitory curve; for IC50: read-out: IC50 [μM] (counterscreen)
T3 construct: made in house; host or cells: BL-21 plus RIL cells (E. coli)
T3 sequence (Q99828 1-191): T1 sequence (Q99828 1-191)

[5] = In vitro ADME: PAMPA permeability
[6] = Table 1, read-out: FP assay IC50
[7] = confirmatory screen, negative sign = inhibitory curve
[8] = confirmatory screen, read-out: IC50 [μM] (confirmatory screen)
[9] = qHTS primary screen hits, Table S2
[10] = qHTS primary screen hits, Table S2, read-out: IC50

COc1ccc(C(=O)c2no[n+]([O-])c2C(=O)c2ccc(OC)cc2)cc1.O=C(O)C(F)(F)F [NCGC00064079-03]
inhibition at 10 µM (washed human platelets): 99% | Thrombin Assay 10 µM (%) (washed human platelets): 99% | solubility ([1]; read-out: Solubility): 9 µg/mL | IC50 [2, 6]: 4.53 µM | Efficacy (%) (confirmatory screen) ([3]; confirmatory screen): -37% | Confirm? (confirmatory screen) ([3]; confirmatory screen): YES | Curve Class (confirmatory screen) [3, 7]: -1.4 | IC50 [3, 8]: 6.3 µM | Efficacy (%) ([3]; qHTS FP screen hits, Table S2): -27% | IC50 ([3]; qHTS FP screen hits, Table S2, read-out: IC50): 8.9 µM | Efficacy (%) (counterscreen) [4]: -30% | Curve Class (counterscreen) [4]: -1.4 | IC50 [4]: 3.2 µM | Papp [5]: 285 ×10⁻⁶ cm/s

O=C(O)C(F)(F)F.O=C(c1cccs1)c1no[n+]([O-])c1C(=O)c1cccs1 [NCGC00071855-05]
solubility ([1]; read-out: Solubility): 18 µg/mL | Efficacy (%) [3, 9]: -48% | Curve Class ([3]; qHTS primary screen hits, Table S2, negative sign = inhibitory curve, several classes where COUNT > 1): -1.2 | IC50 [3, 10]: 11.6 µM | Papp [5]: 187 ×10⁻⁶ cm/s

O=C(c1cccs1)c1no[n+]([O-])c1C(=O)c1cccs1 [NCGC00071855-06]
solubility [1]: 14 µg/mL (≈ 45.7 µM) | PAMPA [5]: 153 10-6 cm/s

O=C(c1cccc(OCc2ccccc2)c1)c1no[n+]([O-])c1C(=O)c1cccc(OCc2ccccc2)c1 [NCGC00351160-01]
inhibition at 10 µM (washed human platelets): 49% | Thrombin Assay 10 µM (%) (washed human platelets): 49% | solubility ([1]; read-out: Solubility): 5 µg/mL (≈ 9.87 µM) | IC50 [2, 6]: 20.7 µM | Papp [5]: 5.74 ×10⁻⁶ cm/s

O=C(O)C(F)(F)F.O=C(c1ccc(F)cc1)c1no[n+]([O-])c1C(=O)c1ccc(F)cc1 [NCGC00351162-01]
solubility ([1]; read-out: Solubility): > 49 µg/mL | Efficacy (%) (confirmatory screen) ([3]; confirmatory screen): -69% | Confirm? (confirmatory screen) ([3]; confirmatory screen): YES | Curve Class (confirmatory screen) [3, 7]: -1.2 | IC50 [3, 8]: 12.6 µM | Efficacy (%) (counterscreen) [4]: -68% | Curve Class (counterscreen) [4]: -2.2 | IC50 [4]: 35.5 µM | Papp [5]: 6.01 ×10⁻⁶ cm/s

O=C(c1ccc(F)cc1)c1no[n+]([O-])c1C(=O)c1ccc(F)cc1 [NCGC00351162-02]
inhibition at 10 µM (washed human platelets): 97% | Thrombin Assay 10 µM (%) (washed human platelets): 97% | solubility ([1]; read-out: Solubility): 34 µg/mL (≈ 103 µM) | IC50 [2, 6]: 7.5 µM | IC50 ([2]; log of IC50 in M (negative values), read-out: FP Assay LOG IC50 (converted)): 7.41 µM | Efficacy (%) [3, 9]: -58% | IC50 [3, 10]: 26.6 µM
